These results are taken from article PMC3030585, “Functional Magnetic Resonance Imaging Reveals Different Neural Substrates for the Effects of Orexin-1 and Orexin-2 Receptor Antagonists” (PLoS ONE, 2011).

Assay [1] deals with T1, κ-opioid (KOP) receptor (Homo sapiens, UniProt P41145).
T1 construct: gene OPRK1
Briefly: CEREP/Bioprint binding assay panel (human isoforms).

Assay [2] concerns the target T2, orexin-1 receptor (OX1R) (Rattus norvegicus, UniProt P56718).
T2 construct: gene Hcrtr1
T2 sequence (P56718 1-416): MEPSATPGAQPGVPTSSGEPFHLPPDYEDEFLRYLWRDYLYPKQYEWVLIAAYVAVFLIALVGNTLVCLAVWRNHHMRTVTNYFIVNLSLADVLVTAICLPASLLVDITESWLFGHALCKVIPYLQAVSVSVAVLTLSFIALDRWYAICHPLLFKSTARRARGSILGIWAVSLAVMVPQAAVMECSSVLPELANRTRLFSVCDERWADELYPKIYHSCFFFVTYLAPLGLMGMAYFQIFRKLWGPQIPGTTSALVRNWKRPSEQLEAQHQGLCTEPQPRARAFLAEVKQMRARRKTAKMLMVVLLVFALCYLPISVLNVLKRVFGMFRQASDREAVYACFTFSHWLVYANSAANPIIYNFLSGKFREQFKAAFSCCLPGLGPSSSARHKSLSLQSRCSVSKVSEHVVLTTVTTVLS
Briefly: antagonism of Orexin-A-induced [3H]inositol phosphates accumulation in RBL cells stably expressing rat OX1R. The assay is classed as cell-based.

Assay [3] has as its target T3, orexin-2 receptor (OX2R) (Rattus norvegicus, UniProt P56719).
T3 construct: gene Hcrtr2
T3 sequence (P56719 1-460): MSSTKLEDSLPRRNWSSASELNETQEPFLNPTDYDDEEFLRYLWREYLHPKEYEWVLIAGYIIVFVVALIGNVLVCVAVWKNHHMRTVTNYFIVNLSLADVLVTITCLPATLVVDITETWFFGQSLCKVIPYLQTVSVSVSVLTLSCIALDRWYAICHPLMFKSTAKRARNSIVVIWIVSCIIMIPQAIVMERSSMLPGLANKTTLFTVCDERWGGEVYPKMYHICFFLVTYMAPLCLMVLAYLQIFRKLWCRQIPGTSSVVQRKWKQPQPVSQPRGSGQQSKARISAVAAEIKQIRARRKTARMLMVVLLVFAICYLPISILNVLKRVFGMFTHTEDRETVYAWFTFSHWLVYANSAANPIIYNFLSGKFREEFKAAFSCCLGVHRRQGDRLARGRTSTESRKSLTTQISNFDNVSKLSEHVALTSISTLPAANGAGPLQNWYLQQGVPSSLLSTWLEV
Briefly: antagonism of Orexin-A-induced [3H]inositol phosphates accumulation in RBL cells stably expressing rat OX2R (Schild analysis). In kind it is cell-based.

T1 sequence (P41145 whole entry): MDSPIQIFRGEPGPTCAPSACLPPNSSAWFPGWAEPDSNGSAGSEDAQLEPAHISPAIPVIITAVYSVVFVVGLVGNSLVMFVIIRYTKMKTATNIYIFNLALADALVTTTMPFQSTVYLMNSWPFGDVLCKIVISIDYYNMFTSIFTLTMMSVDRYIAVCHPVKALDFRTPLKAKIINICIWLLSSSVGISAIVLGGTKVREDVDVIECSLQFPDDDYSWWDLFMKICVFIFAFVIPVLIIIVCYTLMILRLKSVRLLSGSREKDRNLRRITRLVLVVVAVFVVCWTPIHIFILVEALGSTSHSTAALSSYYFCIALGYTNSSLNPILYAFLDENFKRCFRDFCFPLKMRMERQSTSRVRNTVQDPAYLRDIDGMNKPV

For `COc1c(F)cccc1C(=O)N1C[C@@H](C)CC[C@H]1CNc1ccc(Br)cn1` [GSK1059865, 5-bromo-N-[(2S,5S)-1-(3-fluoro-2-methoxybenzoyl)-5-methylpiperidin-2-yl]methyl-pyridin-2-amine], in assay [1], the affinity corresponds to a Ki of 316 nM. Further, the Kb in assay [2] was 1.58 nM; in assay [3] it was 126 nM.
As to `CC1(C)OC[C@H](NC(=O)Nc2ccc(Br)cc2Br)[C@H](c2ccccc2)O1` [JNJ10397049], the Kb in assay [2] was 1260 nM; in assay [3] it was 3.16 nM.
